Here are results for 2 molecules from US10023566B2, “Dasatinib salts” (EGIS GYOGYSZERGYAR ZRT, priority 2014, dated 2018).

Structures can show the parent of a compound that is named as a salt.

The nature of this data set: Water adsorption, DVS (dynamic vapor sorption) analysis. The class given is physicochemical. Conditions: after drying. An excerpt: As it is disclosed in WO2007/035874 paragraph [0096] dasatinib mono HCl includes a cavity or channel, which may be partially or fully occupied by solvent or a mixture of solvent. […] Further salts disclosed in the prior art also contain solvent adsorbed on the surface or in the form of solvate. These forms are nor suitable for pharmaceutical application. […] Therefore we carried out our comparative experiments between dasatinib base monohydrate and the new salts of the present invention.

In the case of `Cc1nc(Nc2ncc(C(=O)Nc3c(C)cccc3Cl)s2)cc(N2CCN(CCO)CC2)n1` [dasatinib diHCl salt, N-(2-Chloro-6-methylphenyl)-2-[6-[4-(2-hydroxyethyl)piperazin-1-yl]-2-methylpyrimidin-4-ylamino]-1,3-thiazole-5-carboxamide], the “water adsorption property (in words)” value was “tends to adsorb water”.

Regarding `Cc1nc(Nc2ncc(C(=O)Nc3c(C)cccc3Cl)s2)cc(N2CCN(CCO)CC2)n1` [dasatinib mono HCl salt, N-(2-Chloro-6-methylphenyl)-2-[6-[4-(2-hydroxyethyl)piperazin-1-yl]-2-methylpyrimidin-4-ylamino]-1,3-thiazole-5-carboxamide], the “water adsorption property (in words)” value is given as “changeable, especially after drying”.
